This note sets out measurements from US6124323A, “4-substituted piperidine analogs and their use as subtype selective NMDA receptor antagonists” (Warner-Lambert Company, priority 1998, dated 2000).

The structures appear in SMILES notation. Where a name gives a salt, the structure may show the parent alone.

As a reminder, the ED50 is the dose that gives a 50% effect, or the effect in half of the subjects.

Assay [1] concerns Maximal Electroshock-induced Seizures. As to the kind of experiment: Maximal electroshock-induced seizures (MES). Conditions: Mus musculus; mice; 50 mA, 60 pulses/sec, 1 sec. Format: in vivo. For orientation: The maximal electroshock test induces tonic seizures with an electrical stimulus.
Source text: Seizures were induced by application of current (50 mA, 60 pulses/sec, 0.8 sec pulse width, 1 sec duration, d.c.) through saline-coated corneal electrodes using a Ugo Basile ECT device (Model 7801). […] A tonic seizure was defined as a hindlimb extension in excess of 90 degrees from the plane of the body.
The target of assay [2] is T1, NMDA receptor subunits 1A/2C (Rattus norvegicus, UniProt P35439+Q00961).
T1 construct: expressed in transfected cells; host or cells: Xenopus laevis oocytes (cRNA injection; clones from Dr. P. H. Seeburg)
T1 sequence (Q00961 20-1237, other chains not shown): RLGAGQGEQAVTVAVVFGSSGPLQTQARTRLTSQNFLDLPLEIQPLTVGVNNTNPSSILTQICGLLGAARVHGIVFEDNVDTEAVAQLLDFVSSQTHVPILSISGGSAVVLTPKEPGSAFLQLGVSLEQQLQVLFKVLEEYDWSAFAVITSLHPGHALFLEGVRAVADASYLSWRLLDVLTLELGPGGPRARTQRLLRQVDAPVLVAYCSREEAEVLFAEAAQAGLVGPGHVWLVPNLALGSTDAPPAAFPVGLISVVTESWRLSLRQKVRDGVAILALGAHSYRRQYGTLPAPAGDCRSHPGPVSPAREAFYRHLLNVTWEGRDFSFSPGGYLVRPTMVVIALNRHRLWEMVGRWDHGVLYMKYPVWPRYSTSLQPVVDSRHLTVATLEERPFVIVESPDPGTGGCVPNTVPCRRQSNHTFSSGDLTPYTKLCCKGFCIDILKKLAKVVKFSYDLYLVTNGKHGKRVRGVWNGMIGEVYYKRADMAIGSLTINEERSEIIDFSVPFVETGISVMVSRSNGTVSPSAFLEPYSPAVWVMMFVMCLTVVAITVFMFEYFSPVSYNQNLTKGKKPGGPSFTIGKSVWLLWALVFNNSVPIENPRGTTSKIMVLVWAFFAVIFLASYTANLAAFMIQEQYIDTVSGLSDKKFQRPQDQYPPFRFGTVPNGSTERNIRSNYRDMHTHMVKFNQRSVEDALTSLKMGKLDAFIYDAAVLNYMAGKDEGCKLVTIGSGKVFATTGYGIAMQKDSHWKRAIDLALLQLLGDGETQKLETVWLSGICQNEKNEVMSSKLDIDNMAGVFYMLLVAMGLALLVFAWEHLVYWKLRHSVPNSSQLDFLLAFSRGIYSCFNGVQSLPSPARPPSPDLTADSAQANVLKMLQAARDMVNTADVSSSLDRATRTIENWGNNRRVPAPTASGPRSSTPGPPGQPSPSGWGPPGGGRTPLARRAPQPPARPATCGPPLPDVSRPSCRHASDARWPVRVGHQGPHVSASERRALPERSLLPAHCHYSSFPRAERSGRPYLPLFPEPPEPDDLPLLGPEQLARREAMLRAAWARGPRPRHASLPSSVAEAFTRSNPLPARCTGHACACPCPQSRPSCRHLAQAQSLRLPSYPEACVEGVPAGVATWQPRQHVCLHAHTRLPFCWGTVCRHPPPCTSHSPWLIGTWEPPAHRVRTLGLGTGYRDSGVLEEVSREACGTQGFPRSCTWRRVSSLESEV
As to the kind of experiment: Electrophysiological assay at NMDA receptor subunits expressed in Xenopus oocytes, 1A/2C. Format: cell-based. Particulars: Xenopus oocytes; glutamate 100 μm and glycine 1-100 μm; read-out: Subunits IC50, 1A/2C. In short, it runs like this: (§1)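 Two-electrode voltage clamp of Xenopus oocytes injected with rat NR1A plus NR2A, 2B or 2C cRNA (1:1), recorded 3–21 days post-injection in Ringer's, pH 7.4. Currents evoked by glutamate (100 μm) with glycine (1–100 μm); antagonist applied by bath perfusion at rising concentrations, IC50 from logistic fit or linear regression for incomplete curves.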

Assay [3] deals with T2, NMDA receptor subunits 1A/2B (Rattus norvegicus, UniProt P35439+Q00960).
T2 construct: expressed in transfected cells; host or cells: Xenopus laevis oocytes (cRNA injection; clones from Dr. P. H. Seeburg)
T2 sequence (Q00960 27-1482, other chains not shown): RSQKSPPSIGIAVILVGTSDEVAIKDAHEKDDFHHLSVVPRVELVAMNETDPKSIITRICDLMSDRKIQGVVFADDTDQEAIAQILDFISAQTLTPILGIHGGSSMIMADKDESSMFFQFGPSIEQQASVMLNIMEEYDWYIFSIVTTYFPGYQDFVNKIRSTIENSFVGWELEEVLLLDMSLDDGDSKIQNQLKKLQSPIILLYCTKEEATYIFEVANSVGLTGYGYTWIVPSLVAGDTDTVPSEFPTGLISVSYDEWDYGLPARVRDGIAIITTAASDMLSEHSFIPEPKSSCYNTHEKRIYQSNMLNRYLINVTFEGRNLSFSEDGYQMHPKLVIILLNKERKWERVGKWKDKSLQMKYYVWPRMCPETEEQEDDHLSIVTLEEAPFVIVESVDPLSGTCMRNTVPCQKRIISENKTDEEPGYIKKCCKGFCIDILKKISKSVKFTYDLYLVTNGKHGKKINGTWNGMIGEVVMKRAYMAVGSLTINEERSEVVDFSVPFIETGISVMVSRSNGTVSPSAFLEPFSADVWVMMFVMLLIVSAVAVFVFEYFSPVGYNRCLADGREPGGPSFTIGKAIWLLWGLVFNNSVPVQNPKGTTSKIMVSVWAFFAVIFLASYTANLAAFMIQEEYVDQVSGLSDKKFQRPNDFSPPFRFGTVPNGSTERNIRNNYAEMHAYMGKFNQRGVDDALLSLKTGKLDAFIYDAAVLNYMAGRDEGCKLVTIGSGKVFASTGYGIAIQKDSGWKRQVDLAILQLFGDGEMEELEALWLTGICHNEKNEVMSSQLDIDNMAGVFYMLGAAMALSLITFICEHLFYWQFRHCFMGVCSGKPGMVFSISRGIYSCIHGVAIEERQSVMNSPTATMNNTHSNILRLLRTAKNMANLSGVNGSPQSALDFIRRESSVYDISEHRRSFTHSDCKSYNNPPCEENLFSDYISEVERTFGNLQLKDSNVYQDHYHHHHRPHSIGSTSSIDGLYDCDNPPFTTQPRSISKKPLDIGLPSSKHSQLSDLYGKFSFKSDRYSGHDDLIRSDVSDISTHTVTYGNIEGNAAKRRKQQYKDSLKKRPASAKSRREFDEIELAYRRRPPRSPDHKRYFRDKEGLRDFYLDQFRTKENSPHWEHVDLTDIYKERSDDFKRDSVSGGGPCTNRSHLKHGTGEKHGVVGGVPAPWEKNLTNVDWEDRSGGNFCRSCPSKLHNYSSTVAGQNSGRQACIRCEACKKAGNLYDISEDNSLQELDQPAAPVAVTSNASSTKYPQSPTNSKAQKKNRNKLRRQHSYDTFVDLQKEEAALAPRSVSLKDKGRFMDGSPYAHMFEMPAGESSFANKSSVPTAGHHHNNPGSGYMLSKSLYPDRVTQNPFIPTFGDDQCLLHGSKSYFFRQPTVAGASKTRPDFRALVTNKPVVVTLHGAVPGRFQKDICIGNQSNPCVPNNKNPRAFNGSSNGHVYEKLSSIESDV
As to the kind of experiment: Electrophysiological assay at NMDA receptor subunits expressed in Xenopus oocytes, 1A/2B. Particulars: Xenopus oocytes; glutamate 100 μm and glycine 1-100 μm; read-out: Subunits IC50, 1A/2B. The class given is cell-based. In short, it runs like this:
as §1

In assay [4] the target is T3, NMDA receptor subunits 1A/2A (Rattus norvegicus, UniProt P35439+Q00959).
T3 construct: expressed in transfected cells; host or cells: Xenopus laevis oocytes (cRNA injection; clones from Dr. P. H. Seeburg)
T3 sequence (Q00959 20-1464 limits assumed, other chains not shown): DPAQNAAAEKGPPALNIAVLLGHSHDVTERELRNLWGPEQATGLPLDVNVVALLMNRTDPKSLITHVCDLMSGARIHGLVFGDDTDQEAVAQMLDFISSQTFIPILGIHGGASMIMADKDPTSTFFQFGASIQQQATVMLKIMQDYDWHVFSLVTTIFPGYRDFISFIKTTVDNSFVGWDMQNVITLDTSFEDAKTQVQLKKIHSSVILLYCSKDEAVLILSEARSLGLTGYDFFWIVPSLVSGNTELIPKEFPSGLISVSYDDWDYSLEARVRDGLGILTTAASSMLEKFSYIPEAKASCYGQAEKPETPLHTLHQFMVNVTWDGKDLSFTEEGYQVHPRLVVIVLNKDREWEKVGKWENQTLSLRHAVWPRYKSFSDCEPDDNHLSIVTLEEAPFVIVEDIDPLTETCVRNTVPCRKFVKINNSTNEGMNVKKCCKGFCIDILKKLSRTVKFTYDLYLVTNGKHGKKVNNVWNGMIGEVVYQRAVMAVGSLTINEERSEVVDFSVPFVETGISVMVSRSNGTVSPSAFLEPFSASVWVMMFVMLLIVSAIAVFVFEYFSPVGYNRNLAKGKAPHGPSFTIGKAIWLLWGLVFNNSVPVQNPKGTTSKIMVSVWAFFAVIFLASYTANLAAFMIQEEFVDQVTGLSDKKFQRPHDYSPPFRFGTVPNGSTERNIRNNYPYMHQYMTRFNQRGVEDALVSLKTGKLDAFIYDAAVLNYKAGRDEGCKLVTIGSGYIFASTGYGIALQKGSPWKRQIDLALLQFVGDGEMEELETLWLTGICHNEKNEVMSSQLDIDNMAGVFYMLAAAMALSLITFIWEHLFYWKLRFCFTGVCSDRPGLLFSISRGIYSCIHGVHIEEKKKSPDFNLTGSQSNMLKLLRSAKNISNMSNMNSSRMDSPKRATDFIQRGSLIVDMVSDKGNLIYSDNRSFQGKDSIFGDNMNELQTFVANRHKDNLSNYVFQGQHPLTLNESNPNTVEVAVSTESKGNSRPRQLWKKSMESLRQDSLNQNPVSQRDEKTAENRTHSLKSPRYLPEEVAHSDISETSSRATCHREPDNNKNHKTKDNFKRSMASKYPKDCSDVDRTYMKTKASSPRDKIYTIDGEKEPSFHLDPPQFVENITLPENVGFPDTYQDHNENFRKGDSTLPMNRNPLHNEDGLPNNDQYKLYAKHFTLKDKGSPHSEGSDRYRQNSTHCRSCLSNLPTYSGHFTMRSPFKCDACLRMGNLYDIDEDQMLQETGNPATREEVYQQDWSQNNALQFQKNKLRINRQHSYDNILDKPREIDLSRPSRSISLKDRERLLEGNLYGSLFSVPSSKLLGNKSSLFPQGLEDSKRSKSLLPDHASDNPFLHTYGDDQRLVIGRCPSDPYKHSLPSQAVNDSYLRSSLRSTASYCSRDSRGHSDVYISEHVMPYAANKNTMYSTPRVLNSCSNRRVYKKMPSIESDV
Briefly: Electrophysiological assay at NMDA receptor subunits expressed in Xenopus oocytes, 1A/2A. Format: cell-based. Particulars: glutamate 100 μm and glycine 1-100 μm. An outline of the steps:
as §1

`OC(COc1cccc2ccccc12)CN1CCC(Cc2ccccc2)CC1` (centres unmarked) [Ex. 3, 4-Benzyl-1-[2-hydroxy-3-(1-naphthyloxy)propyl]piperidine] displayed an ED50 in assay [1] of 2 mg/kg. The IC50 in assay [2] was over 100 µM; in assay [3] it was 2.8 µM; in assay [4] it was 35 µM.
For the compound `Br.Br.Nc1ccc(OCCN2CCC(Cc3ccccc3)CC2)cc1` [Ex. 13, 1-(2-(4-Aminophenoxy)ethyl)-4-benzylpiperidine dihydrobromide], the 50% effect level in assay [1] (ED50) was put at a dose of 6 mg/kg. Further, the IC50 in assay [2] was over 100 µM; in assay [3], 1.3 µM; in assay [4], 90 µM.
In turn, `OCCc1cccc(OCCN2CCC(Cc3ccccc3)CC2)c1` [Ex. 18, 4-Benzyl-1-(2-(3-(2-hydroxyethyl)phenoxy)ethyl)piperidine] returned an ED50 in assay [1] of 6 mg/kg. Also, the IC50 was over 100 µM in assay [2], 0.4 µM in assay [3] and 60 µM in assay [4].
`Fc1cccc(OCCCN2CCC(Cc3ccccc3)CC2)c1` [Ex. 22, 4-Benzyl-1-(3-(3-fluorophenoxy)propyl)piperidine hydrobromide] came in with an ED50 in assay [1] of 4 mg/kg. Also, the figures for the IC50 in assay [2], in assay [3] and in assay [4] were over 100 µM, 0.9 µM and 90 µM, respectively.
For `Clc1ccc(CC2CCN(CCOc3ccccc3)CC2)cc1` [Ex. 24, 4-(4-Chlorobenzyl)-1-(2-phenoxyethyl)piperidine hydrochloride], in that order: 2 mg/kg, 100 µM, 1 µM and 70 µM.
For `Br.Br.Nc1ccc(OCCN2CCC(Cc3ccc(Cl)cc3)CC2)cc1` [Ex. 28, 1-(2-(4-Aminophenoxy)ethyl)-4-(4-chlorobenzyl)piperidine dihydrobromide], in that order: 5 mg/kg, over 100 µM, 0.4 µM and 38 µM.
For `Clc1ccc(CC2CCN(CCCOc3ccccc3)CC2)cc1` [Ex. 30, 4-(4-Chlorobenzyl)-1-(3-phenoxypropyl)piperidine hydrobromide], in that order: 6 mg/kg, 100 µM, 0.8 µM and 50 µM.
In assay [1], `Fc1cccc(OCCCN2CCC(Cc3ccc(Cl)cc3)CC2)c1` [Ex. 31, 4-(4-Chlorobenzyl)-1-(3-(3-fluorophenoxy)propyl)piperidine hydrobromide] returned an ED50 of 7.5 mg/kg. Besides, the IC50 amounted to 60 µM in assay [2], 0.9 µM in assay [3] and 34 µM in assay [4].
The corresponding values for `Fc1ccc(OCCN2CCC(Nc3ccc(Cl)cc3)CC2)cc1` [Ex. 38, 4-(4-Chloroanilino)-1-(2-(4-fluorophenoxy)ethyl)piperidine dihydrochloride] are 10 mg/kg, over 100 µM, 45 µM and 75 µM.
For the compound `Clc1ccc(NC2CCN(CCCOc3ccccc3)CC2)cc1` [Ex. 40, 4-(N-(4-Chloroanilino)-1-(3-phenoxypropyl)piperidine hydrobromide], it took a dose of 2.5 mg/kg to reach the 50% effect level in assay [1] (ED50). The IC50 in assay [2] stood at 100 µM; in assay [3], 3 µM; in assay [4], 80 µM.
For `OC1(Cc2ccccc2)CCN(CCOc2ccccc2)CC1` [Ex. 47, 4-Benzyl-4-hydroxy-1-(2-phenoxyethyl)piperidine hydrochloride], in that order: 3.2 mg/kg, over 100 µM, 3 µM and 85 µM.
The corresponding values for `O=c1[nH]c2cccc(OCCN3CCC(Cc4ccccc4)CC3)c2[nH]1` [Ex. 55, 4-Benzyl-1-[2-(2-oxobenzimidazol-4-oxy)ethyl]piperidine] are 6 mg/kg, over 100 µM, 0.11 µM and 50 µM.
In assay [1], `O=c1[nH]c2ccc(OCCN3CCC(Cc4ccccc4)CC3)cc2[nH]c1=O` [Ex. 58, 4-Benzyl-1-[2-(2,3-dioxoquinoxalin-6-oxy)ethyl]piperidine] displayed an ED50 of 5.1 mg/kg. The IC50 in assay [2] was over 100 µM; in assay [3], 0.1 µM; in assay [4], 25 µM.
For `O=c1[nH]c2ccc(OCCN3CCC(Cc4ccccc4)CC3)cc2[nH]1` [Ex. 59, 4-Benzyl-1-[2-(2-oxobenzimidazol-5-oxy)ethyl]piperidine], in that order: 1 mg/kg, over 100 µM, 0.024 µM and 75 µM.
The corresponding values for `O=[N+]([O-])c1ccccc1OCCN1CCC(Cc2ccc(Cl)cc2)CC1` [Ex. 73, 4-(4-Chlorobenzyl)-1-[2-(2-nitrophenoxy)ethyl]piperidine] are 8 mg/kg, 100 µM, 8 µM and 30 µM.
The corresponding values for `Nc1ccccc1OCCN1CCC(Cc2ccc(Cl)cc2)CC1` [Ex. 74, 4-(4-Chlorobenzyl)-1-[2-(2-aminophenoxy)ethyl]piperidine] are 3.5 mg/kg, over 100 µM, 3 µM and 60 µM.
In assay [1], `O=c1[nH]c2cccc(OCCN3CCC(Cc4ccc(Cl)cc4)CC3)c2[nH]1` [Ex. 77, 4-(4-Chlorobenzyl)-1-[2-(2-oxobenzimidazol-4-oxy)ethyl]piperidine] showed an ED50 of 6 mg/kg. In addition, the results for the IC50 in assay [2], in assay [3] and in assay [4] were over 100 µM, 0.11 µM and 50 µM, respectively.
The corresponding values for `Cl.Oc1ccc(OCCN2CCC(Cc3ccccc3)CC2)cc1` [Ex. 99, 1-[2-(4-hydroxyphenoxy)ethyl]-4-benzylpiperidine hydrochloride] are 2 mg/kg, over 300 µM, 0.03 µM and over 300 µM.
For `Oc1ccc(OCCN2CCC(Cc3ccc(Cl)cc3)CC2)cc1` [Ex. 101, hydrochloride], in that order: 3 mg/kg, 240 µM, 0.05 µM and 55 µM.
For the compound `Oc1ccc(OCCN2CCC(Cc3ccc(F)cc3)CC2)cc1` [Ex. 102, 1-[2-(4-Hydroxyphenoxy)ethyl]-4-(4-fluorobenzyl)piperidine hydrochloride], in assay [1], it took a dose of 3 mg/kg to reach the 50% effect level (ED50). For the same compound, the IC50 in assay [2] is 290 µM; in assay [3], 0.02 µM; in assay [4], 60 µM.
The corresponding values for `Fc1ccc(OCCN2CCC(Cc3ccccc3)CC2)cc1` [Ex. 103, 4-Benzyl-1-(2-(4-fluorophenoxy)ethyl)piperidine hydrochloride] are 3 mg/kg, over 300 µM, 1 µM and 95 µM.
The corresponding values for `Oc1ccc(CC2CCN(CCOc3ccc(F)cc3)CC2)cc1` [Ex. 104] are 3 mg/kg, over 300 µM, 0.2 µM and 50 µM.
For `Oc1ccc(OCCN2CCC(Cc3cccc(F)c3)CC2)cc1` [Ex. 112, 1-[2-(4-Hydroxyphenoxy)ethyl]-4-(3-fluorobenzylpiperidine hydrochloride], in that order: 4.5 mg/kg, 280 µM, 0.08 µM and 30 µM.
